Measurements from ChEMBL document CHEMBL3526121, “Pharmacokinetics, bioavailability, tissue distribution, excretion, and metabolite identification of methoxyflavones in Kaempferia parviflora extract in rats” (Drug Metab Dispos, 2012).
Blank lines part the entries; values can stand above or below the molecule they belong to.

Assays:
[1] = Drug metabolism in Wistar rat assessed as excretion of 3,5-dihydroxy-7-methoxy-2-(4-methoxyphenyl)-4H-chromen-4-one in urine/feces at 750 mg/kg, po by LC-MS and LC-MS/MS analysis; assay type: ADME, organism-based; set-up: dose 750 mg/kg, route oral; details: in vivo
[2] = Drug metabolism in Wistar rat assessed as excretion of 3,5-dihydroxy-2-(4-hydroxyphenyl)-7-methoxy-4H-chromen-4-one in feces at 750 mg/kg, po by LC-MS and LC-MS/MS analysis; assay type: ADME, organism-based; set-up: dose 750 mg/kg, route oral; details: in vivo
[3] = Drug excretion in Wistar rat urine at 750 mg/kg, po after 12 hrs by HPLC-UV analysis; assay type: ADME, organism-based; set-up: dose 750 mg/kg, route oral; details: in vivo
[4] = Drug excretion in Wistar rat feces at 750 mg/kg, po after 12 hrs by HPLC-UV analysis; assay type: ADME, organism-based; set-up: dose 750 mg/kg, route oral; details: in vivo
[5] = Drug metabolism in Wistar rat urine/feces treated with 750 mg/kg, po of 5,7-dimethoxyflavone by LC-MS and LC-MS/MS analysis; assay type: ADME, organism-based; set-up: dose 750 mg/kg, route oral; details: in vivo
[6] = Drug metabolism in Wistar rat urine/feces treated with 750 mg/kg, po of 5,7,4'-trimethoxyflavone by LC-MS and LC-MS/MS analysis; assay type: ADME, organism-based; set-up: dose 750 mg/kg, route oral; details: in vivo
[7] = AUC in Wistar rat at 250 mg/kg, iv by HPLC analysis; assay type: ADME, organism-based; set-up: dose 250 mg/kg, route intravenous; details: plasma
[8] = Drug metabolism in Wistar rat assessed as excretion of 2-phenyl-5-((2S,3R,4S,5S,6R)-3,4,5-trihydroxy-6-(hydroxymethyl)tetrahydro-2H-pyran-2-yloxy)-4H-chromen-4-one in urine at 750 mg/kg, po by LC-MS and LC-MS/MS analysis; assay type: ADME, organism-based; set-up: dose 750 mg/kg, route oral; details: in vivo
[9] = test system: Brain; assay: AUC (0.083 to 4 hrs) in Wistar rat brain at 750 mg/kg, po by LC-MS/MS analysis; assay type: ADME, organism-based; set-up: time 0.083-4 hr, dose 750 mg/kg, route oral; details: in vivo
[10] = test system: Rattus norvegicus; assay: Volume of distribution in Wistar rat at 250 mg/kg, po by HPLC analysis; assay type: ADME, organism-based; set-up: dose 250 mg/kg, route oral; details: in vivo
[11] = Tmax in Wistar rat at 250 mg/kg, po by HPLC analysis; assay type: ADME, organism-based; set-up: dose 250 mg/kg, route oral; details: in vivo
[12] = Tmax in Wistar rat testes at 750 mg/kg, po by LC-MS/MS analysis; assay type: ADME, organism-based, Testis; set-up: dose 750 mg/kg, route oral
[13] = Tmax in Wistar rat brain at 750 mg/kg, po by LC-MS/MS analysis; assay type: ADME, organism-based; set-up: dose 750 mg/kg, route oral
[14] = Tmax in Wistar rat lung at 750 mg/kg, po by LC-MS/MS analysis; assay type: ADME, organism-based; set-up: dose 750 mg/kg, route oral
[15] = Cmax in Wistar rat testes at 750 mg/kg, po by LC-MS/MS analysis; assay type: ADME, organism-based, Testis; set-up: dose 750 mg/kg, route oral
[16] = Drug metabolism in Wistar rat assessed as excretion of 5,7-dihydroxy-2-phenyl-4H-chromen-4-one in urine/feces at 750 mg/kg, po by LC-MS and LC-MS/MS analysis; assay type: ADME, organism-based; set-up: dose 750 mg/kg, route oral; details: in vivo
[17] = Elimination rate constant in Wistar rat at 250 mg/kg, iv by HPLC analysis; assay type: ADME, organism-based; set-up: dose 250 mg/kg, route intravenous; details: Wistar, in vivo, read-out: Ke (converted)
[18] = Cmax in Wistar rat liver at 750 mg/kg, po by LC-MS/MS analysis; assay type: ADME, organism-based; set-up: dose 750 mg/kg, route oral
[19] = Clearance in Wistar rat at 250 mg/kg, iv by HPLC analysis; assay type: ADME, organism-based; set-up: dose 250 mg/kg, route intravenous; details: in vivo
[20] = Half life in Wistar rat at 250 mg/kg, iv by HPLC analysis; assay type: ADME, organism-based; set-up: dose 250 mg/kg, route intravenous; details: Wistar, in vivo
[21] = Cmax in Wistar rat brain at 750 mg/kg, po by LC-MS/MS analysis; assay type: ADME, organism-based; set-up: dose 750 mg/kg, route oral
[22] = Cmax in Wistar rat kidney at 750 mg/kg, po by LC-MS/MS analysis; assay type: ADME, organism-based; set-up: dose 750 mg/kg, route oral
[23] = test system: Rattus norvegicus; assay: Absorption rate constant in Wistar rat at 250 mg/kg, po by HPLC analysis; assay type: ADME, organism-based; set-up: dose 250 mg/kg, route oral; details: in vivo
[24] = Cmax in Wistar rat at 250 mg/kg, po by HPLC analysis; assay type: ADME, organism-based; set-up: dose 250 mg/kg, route oral; details: in vivo
[25] = AUC in Wistar rat at 250 mg/kg, po by HPLC analysis; assay type: ADME, organism-based; set-up: dose 250 mg/kg, route oral; details: plasma
[26] = Tmax in Wistar rat liver at 750 mg/kg, po by LC-MS/MS analysis; assay type: ADME, organism-based; set-up: dose 750 mg/kg, route oral
[27] = Drug excretion in Wistar rat urine at 750 mg/kg, po after 72 hrs by HPLC-UV analysis; assay type: ADME, organism-based; set-up: dose 750 mg/kg, route oral; details: in vivo
[28] = AUC (0.083 to 4 hrs) in Wistar rat testes at 750 mg/kg, po by LC-MS/MS analysis; assay type: ADME, organism-based, Testis; set-up: time 0.083-4 hr, dose 750 mg/kg, route oral; details: in vivo
[29] = Drug excretion in Wistar rat feces at 750 mg/kg, po after up to 72 hrs by HPLC-UV analysis; assay type: ADME, organism-based; set-up: dose 750 mg/kg, route oral; details: faeces, read-out: Drug excretion
[30] = Drug metabolism in Wistar rat assessed as excretion of 7-methoxy-4-oxo-2-phenyl-4H-chromen-5-yl hydrogen sulfate in urine at 750 mg/kg, po by LC-MS and LC-MS/MS analysis; assay type: ADME, organism-based; set-up: dose 750 mg/kg, route oral; details: in vivo
[31] = Drug excretion in Wistar rat feces at 750 mg/kg, po after 12 to 18 hrs by HPLC-UV analysis; assay type: ADME, organism-based; set-up: dose 750 mg/kg, route oral; details: in vivo
[32] = Tmax in Wistar rat kidney at 750 mg/kg, po by LC-MS/MS analysis; assay type: ADME, organism-based; set-up: dose 750 mg/kg, route oral
[33] = test system: Liver; assay: AUC (0.083 to 4 hrs) in Wistar rat liver at 750 mg/kg, po by LC-MS/MS analysis; assay type: ADME, organism-based; set-up: time 0.083-4 hr, dose 750 mg/kg, route oral; details: in vivo
[34] = Drug excretion in Wistar rat urine at 750 mg/kg, po after up to 72 hrs by HPLC-UV analysis; assay type: ADME, organism-based; set-up: dose 750 mg/kg, route oral; details: read-out: Drug excretion
[35] = Drug excretion in Wistar rat urine at 750 mg/kg, po after 18 to 24 hrs by HPLC-UV analysis; assay type: ADME, organism-based; set-up: dose 750 mg/kg, route oral; details: in vivo
[36] = Oral bioavailability in Wistar rat at 250 mg/kg by HPLC analysis; assay type: ADME, organism-based; details: in vivo
[37] = test system: Lung; assay: AUC (0.083 to 4 hrs) in Wistar rat lung at 750 mg/kg, po by LC-MS/MS analysis; assay type: ADME, organism-based; set-up: time upper 4 hr, time lower 0.083 hr, dose 750 mg/kg, route oral; details: in vivo
[38] = Clearance in Wistar rat at 250 mg/kg, po by HPLC analysis; assay type: ADME, organism-based; set-up: dose 250 mg/kg, route oral; details: in vivo
[39] = Cmax in Wistar rat lung at 750 mg/kg, po by LC-MS/MS analysis; assay type: ADME, organism-based; set-up: dose 750 mg/kg, route oral
[40] = Elimination rate constant in Wistar rat at 250 mg/kg, po by HPLC analysis; assay type: ADME, organism-based; set-up: dose 250 mg/kg, route oral; details: in vivo, read-out: Ke (converted)
[41] = Half life in Wistar rat at 250 mg/kg, po by HPLC analysis; assay type: ADME, organism-based; set-up: dose 250 mg/kg, route oral; details: in vivo
[42] = test system: Kidney; assay: AUC (0.083 to 4 hrs) in Wistar rat kidney at 750 mg/kg, po by LC-MS/MS analysis; assay type: ADME, organism-based; set-up: time 0.083-4 hr, dose 750 mg/kg, route oral; details: in vivo

SMILES: COc1ccc(-c2oc3cc(OC)cc(OC)c3c(=O)c2OC)cc1 [TETRAMETHYLKAEMPFEROL]
Drug metabolism [1]: metabolite_detected | Drug metabolism [2]: metabolite_detected

Drug excretion [3]: Active | Drug excretion [4]: Active
SMILES: COc1cc(O)c2c(=O)c(OC)c(-c3ccc(OC)c(OC)c3)oc2c1 [RETUSIN]

Drug metabolism [5]: metabolite_detected
SMILES: COc1cc(OS(=O)(=O)O)c2c(=O)cc(-c3ccccc3)oc2c1

Drug metabolism [6]: metabolite_detected
SMILES: COc1ccc(-c2cc(=O)c3c(OS(=O)(=O)O)cc(OC)cc3o2)cc1

AUC [7]: 233 µg·h/mL | Drug excretion [3]: Active | Drug metabolism [8]: metabolite_detected | AUC [9]: 1.91 µg·h/g | Vd [10]: 2957.53 mL | Tmax [11]: 0.76 h | Tmax [12]: 2.86 h | Tmax [13]: 3.14 h | Tmax [14]: 1.2 h | Cmax [15]: 910 ng/g | Drug metabolism [16]: metabolite_detected | k el [17]: 8.89e-05 s⁻¹ | Cmax [18]: 3850 ng/g | clearance [19]: 0.133 mL/min | half-life [20]: 3.75 h | Cmax [21]: 960 ng/g | Cmax [22]: 1330 ng/g | Drug excretion [4]: Active | ka [23]: 8.69 h⁻¹ | Cmax [24]: 0.78 µg/mL | AUC [25]: 7.01 µg·h/mL | Tmax [26]: 2.57 h | Drug excretion [27]: metabolite_not_detected | AUC [28]: 1.9 µg·h/g | dose excreted at 72 h [29]: 3.1% | Drug metabolism [30]: metabolite_detected | Drug excretion [31]: Active | Tmax [32]: 3.43 h | AUC [33]: 8.6 µg·h/g | dose excreted at 72 h [34]: 0.96% | Drug excretion [35]: Active | bioavailability [36]: 2.1% | AUC [37]: 2.17 µg·h/g | CL/F [38]: 6.12 mL/min | Cmax [39]: 2000 ng/g | k el [40]: 3.61e-05 s⁻¹ | half-life [41]: 5.85 h | AUC [42]: 2.51 µg·h/g
SMILES: COc1cc(OC)c2c(=O)cc(-c3ccccc3)oc2c1 [CHRYSIN DIMETHYL ETHER]
